Test results published in patent publication US20230085307A1, “PYRIDAZINONE COMPOUND AND HERBICIDE” (NISSAN CHEMICAL CORPORATION, priority 2019, published 2023).

Columns and labels:
lambsquarters = assay: Test Example 5: herbicidal effect by foliage application, plastic box (Table 20, symbol O); format: in vivo, lambsquarters (Chenopodium album); conditions: 320 g/ha
Outline: (§1)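 Plants were sown into sterilized diluvial soil under about 1.5 cm cover and kept in a greenhouse at 25° C. to 30° C. Fourteen days on, foliage received an even spray of the diluted emulsion. Herbicidal or crop effect was judged three weeks afterwards.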

southern crabgrass = assay: Test Example 5: herbicidal effect by foliage application, plastic box (Table 20, symbol F); format: in vivo, southern crabgrass (Digitaria ciliaris); conditions: 320 g/ha
Outline: as §1

windgrass = assay: Test Example 5: herbicidal effect by foliage application, plastic box (Table 20, symbol L); format: in vivo, windgrass (Apera spica-venti); conditions: 320 g/ha
Outline: as §1

wild oat = assay: Test Example 5: herbicidal effect by foliage application, plastic box (Table 20, symbol I); format: in vivo, wild oat (Avena fatua); conditions: 320 g/ha
Outline: as §1

barnyard grass [1] = assay: Test Example 3: herbicidal effect by foliage application, Wagner pot (Table 18, symbol H); format: in vivo, barnyard grass (Echinochloa crus-galli)
Outline: (§2)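 Plants were sown in alluvial soil held under 0.1–0.5 cm standing water and grown 14 days in a greenhouse at 25–30 °C. An emulsifiable formulation, water-diluted to the set dose, was then sprayed onto the foliage, and effects were scored three weeks later using previously defined criteria.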

velvetleaf = assay: Test Example 5: herbicidal effect by foliage application, plastic box (Table 20, symbol M); format: in vivo, velvetleaf (Abutilon theophrasti); conditions: 320 g/ha
Outline: as §1

green foxtail = assay: Test Example 5: herbicidal effect by foliage application, plastic box (Table 20, symbol G); format: in vivo, green foxtail (Setaria viridis); conditions: 320 g/ha
Outline: as §1

chickweed = assay: Test Example 5: herbicidal effect by foliage application, plastic box (Table 20, symbol P); format: in vivo, common chickweed (Stellaria media); conditions: 320 g/ha
Outline: as §1

blackgrass = assay: Test Example 5: herbicidal effect by foliage application, plastic box (Table 20, symbol J); format: in vivo, blackgrass (Alopecurus myosuroides); conditions: 320 g/ha
Outline: as §1

barnyard grass [2] = assay: Test Example 5: herbicidal effect by foliage application, plastic box (Table 20, symbol H); format: in vivo, barnyard grass (Echinochloa crus-galli); conditions: 320 g/ha
Outline: as §1

Chinese sprangletop = assay: Test Example 3: herbicidal effect by foliage application, Wagner pot (Table 18, symbol D); format: in vivo, chinese sprangletop (Leptochloa chinensis)
Outline: as §2

Italian ryegrass = assay: Test Example 5: herbicidal effect by foliage application, plastic box (Table 20, symbol K); format: in vivo, Italian ryegrass (Lolium multiflorum); conditions: 320 g/ha
Outline: as §1

persian speedwell = assay: Test Example 5: herbicidal effect by foliage application, plastic box (Table 20, symbol R); format: in vivo, Persian speedwell (Veronica persica); conditions: 320 g/ha
Outline: as §1

redroot pigweed = assay: Test Example 5: herbicidal effect by foliage application, plastic box (Table 20, symbol N); format: in vivo, redroot pigweed (Amaranthus retroflexus); conditions: 320 g/ha
Outline: as §1

rice flat sedge = assay: Test Example 3: herbicidal effect by foliage application, Wagner pot (Table 18, symbol E); format: in vivo, rice flat sedge (Cyperus iria)
Outline: as §2

[3] = foliage application, three weeks after application
[4] = amount of applied herbicide 320 g/ha
[5] = foliage application after 14-day growth, evaluated three weeks after application

## Cc1nn(C)c(=O)c(-c2c(-c3ccc(Cl)cc3)sc3cc(F)ccc23)c1O [3-015]
lambsquarters; [3]
  O: lambsquarters, herbicidal effect grade: 0 (Herbicidal rate of 5% or less (almost no effect))
Southern crabgrass; [3]
  F: southern crabgrass, herbicidal effect grade: 0 (Herbicidal rate of 5% or less (almost no effect))
windgrass; [3]
  L: windgrass, herbicidal effect grade: 5 (Herbicidal rate of 90% or more (almost completely withered))
Wild oat; [3]
  I: wild oat, herbicidal effect grade: 0 (Herbicidal rate of 5% or less (almost no effect))
Barnyard grass [1]; [4]
  herbicidal effect on H: barnyard grass: 3 (Herbicidal rate of 40% or more and less than 70%)
velvetleaf; [3]
  M: velvetleaf, herbicidal effect grade: 0 (Herbicidal rate of 5% or less (almost no effect))
Green foxtail; [3]
  G: green foxtail, herbicidal effect grade: 0 (Herbicidal rate of 5% or less (almost no effect))
chickweed; [3]
  P: chickweed, herbicidal effect grade: 4 (Herbicidal rate of 70% or more and less than 90%)
blackgrass; [3]
  J: blackgrass, herbicidal effect grade: 1 (Herbicidal rate of 5% or more and less than 20%)
Barnyard grass [2]; [3]
  H: barnyard grass, herbicidal effect grade: 0 (Herbicidal rate of 5% or less (almost no effect))
Chinese sprangletop; [4]
  herbicidal effect on D: Chinese sprangletop: 3 (Herbicidal rate of 40% or more and less than 70%)
Italian ryegrass; [3]
  K: Italian ryegrass, herbicidal effect grade: 0 (Herbicidal rate of 5% or less (almost no effect))
Persian speedwell; [3]
  R: persian speedwell, herbicidal effect grade: 2 (Herbicidal rate of 20% or more and less than 40%)
Redroot pigweed; [3]
  N: redroot pigweed, herbicidal effect grade: 2 (Herbicidal rate of 20% or more and less than 40%)
Rice flat sedge; [4]
  herbicidal effect on E: rice flat sedge: 3 (Herbicidal rate of 40% or more and less than 70%)

## Cc1nn(C)c(=O)c(-c2c(-c3ccc(OC(F)F)cc3)sc3cc(Cl)ccc23)c1O [3-147]
lambsquarters; [5]
  herbicidal effect on O: lambsquarters (evaluation grade 0-5): 5 (Herbicidal rate of 90% or more (almost completely withered))
Southern crabgrass; [5]
  herbicidal effect on F: southern crabgrass (evaluation grade 0-5): 3 (Herbicidal rate of 40% or more and less than 70%)
windgrass; [5]
  herbicidal effect on L: windgrass (evaluation grade 0-5): 5 (Herbicidal rate of 90% or more (almost completely withered))
Wild oat; [5]
  herbicidal effect on I: wild oat (evaluation grade 0-5): 3 (Herbicidal rate of 40% or more and less than 70%)
Barnyard grass [1]; 320 g/ha
  herbicidal effect on barnyard grass (H): 4 (Herbicidal rate of 70% or more and less than 90%)
velvetleaf; [5]
  herbicidal effect on M: velvetleaf (evaluation grade 0-5): 4 (Herbicidal rate of 70% or more and less than 90%)
Green foxtail; [5]
  herbicidal effect on G: green foxtail (evaluation grade 0-5): 5 (Herbicidal rate of 90% or more (almost completely withered))
chickweed; [5]
  herbicidal effect on P: chickweed (evaluation grade 0-5): 5 (Herbicidal rate of 90% or more (almost completely withered))
blackgrass; [5]
  herbicidal effect on J: blackgrass (evaluation grade 0-5): 5 (Herbicidal rate of 90% or more (almost completely withered))
Barnyard grass [2]; [5]
  herbicidal effect on H: barnyard grass (evaluation grade 0-5): 3 (Herbicidal rate of 40% or more and less than 70%)
Chinese sprangletop; 320 g/ha
  herbicidal effect on Chinese sprangletop (D): 2 (Herbicidal rate of 20% or more and less than 40%)
Italian ryegrass; [5]
  herbicidal effect on K: Italian ryegrass (evaluation grade 0-5): 3 (Herbicidal rate of 40% or more and less than 70%)
Persian speedwell; [5]
  herbicidal effect on R: persian speedwell (evaluation grade 0-5): 5 (Herbicidal rate of 90% or more (almost completely withered))
Redroot pigweed; [5]
  herbicidal effect on N: redroot pigweed (evaluation grade 0-5): 4 (Herbicidal rate of 70% or more and less than 90%)
Rice flat sedge; 320 g/ha
  herbicidal effect on rice flat sedge (E): 3 (Herbicidal rate of 40% or more and less than 70%)
